{
  "source": "ChEMBL document CHEMBL4118132",
  "about": "“Novel 5-methyl-2-phenylphenanthridium derivatives as FtsZ-targeting antibacterial agents from structural simplification of natural product sanguinarine” (2018)",
  "assay_type_in_all_cases": "functional",
  "key": {"Staphylococcus aureus [1]": {"test_system": "Staphylococcus aureus", "assay": "Bactericidal activity against penicillin-susceptible Staphylococcus aureus ATCC 25923 assessed as bacterial levels at 8 ug/ml after 2 hrs by time-kill assay (reference value: 6.13 to 6.17 log10CFU/ml)"}, "Bacillus pumilus [2]": {"test_system": "Bacillus pumilus", "assay": "Potency index, ratio of ciprofloxacin MIC to test compound MIC for penicillin-susceptible penicillin-susceptible Bacillus pumilus ATCC 63202"}, "[3]": {"test_system": "Staphylococcus epidermidis", "assay": "Potency index, ratio of ciprofloxacin MIC to test compound MIC for penicillin-resistant Staphylococcus epidermidis clinical isolate"}, "Staphylococcus aureus [4]": {"test_system": "Staphylococcus aureus", "assay": "Bactericidal activity against penicillin-susceptible Staphylococcus aureus ATCC 25923 assessed as bacterial levels at 16 ug/ml after 2 hrs by time-kill assay (reference value: 6.13 to 6.17 log10CFU/ml)"}, "Staphylococcus aureus [5]": {"test_system": "Staphylococcus aureus", "assay": "Antibacterial activity against methicillin-resistant Staphylococcus aureus ATCC 43300 after 24 hrs by broth microdilution method", "conditions": "ATCC 43300, 24 h"}, "Staphylococcus aureus [6]": {"test_system": "Staphylococcus aureus", "assay": "Bactericidal activity against penicillin-susceptible Staphylococcus aureus ATCC 25923 assessed as bacterial levels at 16 ug/ml after 6 hrs by time-kill assay (reference value: 6.13 to 7.54 log10CFU/ml)"}, "Staphylococcus aureus [7]": {"test_system": "Staphylococcus aureus", "assay": "Bactericidal activity against penicillin-susceptible Staphylococcus aureus ATCC 25923 assessed as bacterial levels at 32 ug/ml after 6 hrs by time-kill assay (reference value: 6.13 to 7.54 log10CFU/ml)"}, "Escherichia coli": {"test_system": "Escherichia coli", "assay": "Antibacterial activity against penicillin-susceptible Escherichia coli ATCC 25922 after 24 hrs by broth microdilution method", "conditions": "ATCC 25922, 24 h"}, "Staphylococcus aureus [8]": {"test_system": "Staphylococcus aureus", "assay": "Antibacterial activity against penicillin-resistant Staphylococcus aureus clinical isolate after 24 hrs by broth microdilution method"}, "Staphylococcus aureus [9]": {"test_system": "Staphylococcus aureus", "assay": "Bactericidal activity against penicillin-susceptible Staphylococcus aureus ATCC 25923 assessed as bacterial levels at 8 ug/ml after 4 hrs by time-kill assay (reference value: 6.13 to 6.71 log10CFU/ml)"}, "Staphylococcus aureus [10]": {"test_system": "Staphylococcus aureus", "assay": "Bactericidal activity against penicillin-susceptible Staphylococcus aureus ATCC 25923 assessed as bacterial levels at 16 ug/ml after 24 hrs by time-kill assay (reference value: 6.13 to 8.34 log10CFU/ml)"}, "Staphylococcus aureus [11]": {"test_system": "Staphylococcus aureus", "assay": "Potency index, ratio of oxacillin sodium MIC to test compound MIC for penicillin-resistant Staphylococcus aureus clinical isolate"}, "[12]": {"test_system": "Staphylococcus epidermidis", "assay": "Antibacterial activity against penicillin-resistant Staphylococcus epidermidis clinical isolate after 24 hrs by broth microdilution method"}, "Bacillus pumilus [13]": {"test_system": "Bacillus pumilus", "assay": "Potency index, ratio of oxacillin sodium MIC to test compound MIC for penicillin-susceptible penicillin-susceptible Bacillus pumilus ATCC 63202"}, "Staphylococcus aureus [14]": {"test_system": "Staphylococcus aureus", "assay": "Potency index, ratio of ciprofloxacin MIC to test compound MIC for penicillin-susceptible Staphylococcus aureus ATCC 25923"}, "Bacillus subtilis": {"test_system": "Bacillus subtilis", "assay": "Antibacterial activity against penicillin-susceptible Bacillus subtilis ATCC 9372 after 24 hrs by broth microdilution method", "conditions": "ATCC 9372, 24 h"}, "Staphylococcus aureus [15]": {"test_system": "Staphylococcus aureus", "assay": "Bactericidal activity against penicillin-susceptible Staphylococcus aureus ATCC 25923 assessed as bacterial levels at 8 ug/ml after 24 hrs by time-kill assay (reference value: 6.13 to 8.34 log10CFU/ml)"}, "Staphylococcus aureus [16]": {"test_system": "Staphylococcus aureus", "assay": "Bactericidal activity against penicillin-susceptible Staphylococcus aureus ATCC 25923 after 24 hrs by flat colony counting method", "conditions": "ATCC 25923, 24 h"}},
  "data": [
    {"smiles": "Cc1cc(-c2ccc(C(F)(F)F)cc2)cc2c3ccccc3c[n+](C)c12.[Cl-]", "values": [
      {"measurement": "Activity", "setting": "Staphylococcus aureus [1]", "result": 6.06, "unit": "log10CFU/ml"},
      {"measurement": "Ratio", "setting": "Bacillus pumilus [2]", "result": 133},
      {"measurement": "Ratio", "setting": "[3]", "result": 512},
      {"measurement": "Activity", "setting": "Staphylococcus aureus [4]", "result": 6, "unit": "log10CFU/ml"},
      {"measurement": "MIC", "setting": "Staphylococcus aureus [5]", "result": 0.25, "unit": "µg/mL"},
      {"measurement": "Activity", "setting": "Staphylococcus aureus [6]", "result": 5.42, "unit": "log10CFU/ml"},
      {"measurement": "Activity", "setting": "Staphylococcus aureus [7]", "result": 0, "unit": "log10CFU/ml"},
      {"measurement": "MIC", "setting": "Escherichia coli", "result": "> 64", "unit": "µg/mL"},
      {"measurement": "MIC", "setting": "Staphylococcus aureus [8]", "result": 0.25, "unit": "µg/mL"},
      {"measurement": "Activity", "setting": "Staphylococcus aureus [9]", "result": 6.04, "unit": "log10CFU/ml"},
      {"measurement": "Activity", "setting": "Staphylococcus aureus [10]", "result": 0, "unit": "log10CFU/ml"},
      {"measurement": "Ratio", "setting": "Staphylococcus aureus [11]", "result": 256},
      {"measurement": "MIC", "setting": "[12]", "result": 0.125, "unit": "µg/mL"},
      {"measurement": "Ratio", "setting": "Bacillus pumilus [13]", "result": 533},
      {"measurement": "Ratio", "setting": "Staphylococcus aureus [14]", "result": 133},
      {"measurement": "MIC", "setting": "Bacillus subtilis", "result": 0.06, "unit": "µg/mL"},
      {"measurement": "Activity", "setting": "Staphylococcus aureus [15]", "result": 5.88, "unit": "log10CFU/ml"},
      {"measurement": "MBC", "setting": "Staphylococcus aureus [16]", "result": 16, "unit": "µg/mL"}
    ]}
  ]
}
